Source: article PMC10934121 (Molecules, 2024)
“And” between values parts separate entries of the source, which are not always exact repeats. Equal entries are not always repeated.

Tests used:
[1] = Time-resolved concentrations of indole and its metabolites in organs after oral administration of indole (HPLC/MS); format: in vivo, C57BL/6J mice; conditions: for Tmax: C57BL/6JRj, mouse, in vivo, 350 mg/kg
Description: (§1) All animal testing was performed with the European Communities Council Directive 2010/63/E.U. guidelines and approved by the Lithuania State Food and Veterinary Service, Animal Ethics Experimentation Committee (project G2-244). C57BL/6JRj mouse line animals (Janvier Labs, Le Genest-Saint-Isle, France) were used for all procedures. Before the experiment, animals were housed in groups under a 12 h light–dark cycle with a temperature of 21 ± 1 °C and humidity of 55 ± 10%. The experiment was conducted in 3 major phases (Figure 8).
Animals were starved for 1 h before the administration of the compounds. […] The animals then were housed in single cages and culled at different time points (30 min, 1 h, 2 h, 4 h, and 6 h). The organs were immediately extracted on ice and stored at –80 °C until further analysis. The inside of the intestines was cleaned before freezing. 3-Hydroxyindolin-2-one was administered by gavage at three doses (100 mg/kg, 200 mg/kg, and 400 mg/kg). The animals were culled 30 min after the administration. The organs were immediately removed on ice and stored at –80 °C until further analysis.
Organ samples were thawed, weighed, and homogenized (3 cycles ×30 s, using Benchmark the BeadBug 6 homogenizer, Sayreville, NJ, USA) in 1 mL of deionized water containing different concentrations of 1-methylindolin-2-one as an internal standard. Plasma samples were not homogenized and were subjected to liquid–liquid extraction directly. Organ homogenates were centrifuged at 16,000× g for 10 min at 4 °C. The supernatants were extracted three times with equal amounts of ethyl acetate. All three extracts were pooled and evaporated under reduced pressure (AES2000 SpeedVAC, Savant, Thermo Fisher Scientific, Waltham, MA, USA). The dried material was dissolved in 100 μL 50% methanol by vigorous shaking and centrifugation at 16,000× g for 5 min. The supernatant was subjected to HPLC/MS analysis.
(§2) Organ extracts were analyzed by HPLC/MS as described in [20]. […] Limits of detection (LOD) for HPLC determination of the metabolite concentrations were determined by using different concentrations of standard solutions and following the same extraction protocol as described above.

[2] = Detection of 13C isotope-carrying metabolites after oral stable isotope-carrying indole (HPLC/MS); format: in vivo, C57BL/6J mice; conditions: 2 h after gavage of 13C (C2) indole; N = 1
Description: Since indole is produced endogenously by the gut microbiota from dietary compounds, it is possible that the metabolites identified in the organ extracts were produced from endogenous indole or other precursors rather than the exogenously supplied indole. […] We detected heavier isotopes of indolin-2-one and 3-hydroxyindolin-2-one in the brain, liver, cecum, small intestine, and colon 2 h after administration (Figure 4, Figures S1–S15). This confirmed the previous experiment and provided direct evidence that indole in the gut is a substrate for several metabolites that spread throughout the body and even to the brain.
as §1, with “The experiment was conducted in 3 major phases (Figure 8).” left out
as §2

[3] = Plasma and brain concentration after oral administration of 3-hydroxyindolin-2-one; format: in vivo, C57BL/6J mice; conditions: 30 min after oral 3-hydroxyindolin-2-one 100, 200, 400 mg/kg
Description: as §1
Animals were starved for 1 h before the administration of the compounds. […] The animals then were housed in single cages and culled at different time points (30 min, 1 h, 2 h, 4 h, and 6 h). The organs were immediately extracted on ice and stored at –80 °C until further analysis. The inside of the intestines was cleaned before freezing. 3-Hydroxyindolin-2-one was administered by gavage at three doses (100 mg/kg, 200 mg/kg, and 400 mg/kg). The animals were culled 30 min after the administration. The organs were immediately removed on ice and stored at –80 °C until further analysis. […]
as §2

monoamine oxidase = conditions: cited from earlier work
acetylcholinesterase = conditions: cited from earlier work
CBR1 = assay: Gene expression by real-time PCR after indole administration; format: in vivo, C57BL/6J mice
Description: as §1
(§3) The total RNA was isolated from the mice’s brain medulla and liver tissues using the TRIzol™ Plus RNA Purification Kit according to the manufacturer’s protocol (Thermo Fisher Scientific, Vilnius, Lithuania). To remove gDNA, samples were treated with dsDNase reagent (Thermo Fisher Scientific, Lithuania). cDNA was synthesized using a High-Capacity cDNA Reverse Transcription kit (Thermo Fisher Scientific, Lithuania) according to the manufacturer’s instructions. The expression of CYP1A2, CYP2E1, CYP2A5, CYP2C29, CBR1, CBR3, and GAPDH was analyzed by the QuantStudio™ 3 Real-Time PCR System (Thermo Fisher Scientific, Lithuania), using SYBR™ Green PCR Master Mix (Thermo Fisher Scientific, Lithuania). The following primer sequences were used: Cyp2c29_FW (5′-[…]-3′), Cyp2c29_RV (5′-[…]-3′), Cyp2a5_FW (5′-[…]-3′), Cyp2a5_RV (5′-[…]-3′), Cbr3_FW (5′-[…]-3′), Cbr3_RV (5′-[…]-3′), Cyp1a2_FW (5′-[…]-3′), Cyp1a2_RV (5′-[…]-3′), Cyp2e1_FW (5′-[…]-3′), Cyp2e1_RV (5′-[…]-3′), GAPDH_FW (5′-[…]-3′), GAPDH_RV (5′-[…]-3′), Cbr1_FW (5′-[…]-3′), Cbr1_RV (5′-[…]-3′). All samples were run in duplicates. Ct values were normalized to GAPDH using the delta–delta Ct method.

CBR3 = assay: as above; format: in vivo, C57BL/6J mice; conditions: for CBR3 expression increase: liver
Description: as §1, §3

CYP1A2 = assay: as above; format: in vivo, C57BL/6J mice; conditions: liver, 1 h after indole administration, increasing with time
Description: as §1, §3

CYP2E1 = assay: as above; format: in vivo, C57BL/6J mice; conditions: liver
Description: as §1, §3

[4] = cited from earlier work
[5] = design: method as in PMID 9572285; conditions: cited from earlier work
[6] = 30 min after oral indole 350 mg/kg, individual mice (samples 1-2)
[7] = 30 min after oral indole 350 mg/kg, individual mice (samples 1-3)
[8] = 1 h after oral indole 350 mg/kg, individual mice (samples 1-3)
[9] = 2 h after oral indole 350 mg/kg, individual mice (samples 1-3)
[10] = 4 h after oral indole 350 mg/kg, individual mice (samples 1-3)
[11] = 6 h after oral indole 350 mg/kg, individual mice (samples 1-3)

In the case of `O=C1Nc2ccccc2C1O` (stereo not shown) [3-hydroxyindolin-2-one, 3-hydroxy-1,3-dihydro-2H-indol-2-one], the “Concentration in cecum extracts” value [1, 6] is reported as 22.14 nmol/g and 29.66 nmol/g, the “Concentration in brain extracts” value [1, 7] is reported as 54.77 nmol/g and 76.19 nmol/g and 69.87 nmol/g and the “Concentration in large intestine (LI) extracts” value (from here on “Concentration in large intestine”) [1, 7] is reported as 45.32 nmol/g and 75.39 nmol/g and 41.71 nmol/g. For the same molecule, the “Concentration in liver extracts” value [1, 7] was 7.43 nmol/g and 14.12 nmol/g and 15.72 nmol/g, the Concentration in plasma [1, 7] was “BDL” and the “Concentration in small intestine (SI) extracts” value (“Concentration in small intestine” below) [1, 7] was 76.51 nmol/g and 53.50 nmol/g and 66.77 nmol/g. The “Concentration in brain extracts” value [1, 8] was 65.73 nmol/g and 37.10 nmol/g and 68.54 nmol/g, the “Concentration in cecum extracts” value [1, 8] was 18.19 nmol/g and 12.89 nmol/g and 17.05 nmol/g and the “Concentration in large intestine” value [1, 8] was 30.45 nmol/g and 6.37 nmol/g and 58.67 nmol/g. For the same molecule, the “Concentration in liver extracts” value [1, 8] was 64.90 nmol/g and 46.68 nmol/g and 86.61 nmol/g, the Concentration in plasma [1, 8] was “BDL” and the “Concentration in small intestine” value [1, 8] was 52.78 nmol/g and 4.63 nmol/g and BDL. For the same molecule, the “Concentration in brain extracts” value [1, 9] was “BDL”, the “Concentration in cecum extracts” value [1, 9] was 7.06 nmol/g and 19.80 nmol/g and 10.80 nmol/g and the “Concentration in large intestine” value [1, 9] was “BDL”. For the same molecule, the “Concentration in liver extracts” value [1, 9] was 63.22 nmol/g and BDL, the Concentration in plasma [1, 9] was “BDL” and the “Concentration in small intestine” value [1, 9] was “BDL (2×) and 48.78 nmol/g”. For the same molecule, the “Concentration in brain extracts” value [1, 10] was “BDL”, the “Concentration in cecum extracts” value [1, 10] was 21.81 nmol/g and 17.61 nmol/g and BDL and the “Concentration in large intestine” value [1, 10] was “BDL”. For the same molecule, the “Concentration in liver extracts” value [1, 10] was 18.61 nmol/g and BDL and 6.72 nmol/g, the Concentration in plasma [1, 10] was “BDL (2×) and 15.47 nmol/g” and the “Concentration in small intestine” value [1, 10] was “BDL (2×) and 24.91 nmol/g”. The “Concentration in brain extracts” value [1, 11] was “BDL”, the “Concentration in cecum extracts” value [1, 11] was 35.22 nmol/g and BDL and 13.51 nmol/g and the “Concentration in large intestine” value [1, 11] was 18.68 nmol/g and BDL and 33.36 nmol/g. For the same molecule, the “Concentration in liver extracts” value [1, 11] was “BDL”, the Concentration in plasma [1, 11] was “BDL” and the “Concentration in small intestine” value [1, 11] was “BDL”. The “Presence in the brain” value ([1]; after oral indole 350 mg/kg) was “found in the brain”, the “Time of highest concentrations in liver, small intestine and brain” value ([1]; after oral indole 350 mg/kg) was 1 h and the “Heavier (13C) isotope of metabolite in brain, liver, cecum, small intestine and colon” value [2] was “detected”. For the same molecule, the Concentration in brain [3] was “significant dose-dependent increase”, the Concentration in plasma [3] was “significant dose-dependent increase” and the “Inhibitory effect on monoamine oxidase compared to isatin” value (monoamine oxidase) was “lower inhibitory effect”. For the same molecule, the “Inhibitory effect on acetylcholinesterase compared to isatin” value (acetylcholinesterase) was “lower inhibitory effect”.

For `c1ccc2[nH]ccc2c1` [Indole, indole], the “Concentration in cecum extracts” value [1, 6] was 37.54 nmol/g and 22.73 nmol/g, the “Concentration in brain extracts” value [1, 7] was 59.54 nmol/g and 147.88 nmol/g and 22.10 nmol/g and the “Concentration in large intestine” value [1, 7] was 119.49 nmol/g and 137.49 nmol/g and 66.42 nmol/g. The “Concentration in liver extracts” value [1, 7] was 156.1 nmol/g and 54.56 nmol/g and 3.21 nmol/g, the Concentration in plasma [1, 7] was 170.99 nmol/g and 96.67 nmol/g and 15.31 nmol/g and the “Concentration in brain extracts” value [1, 8] was 4.75 nmol/g and BDL and 5.84 nmol/g. For the same molecule, the “Concentration in cecum extracts” value [1, 8] was 29.05 nmol/g and 32.96 nmol/g and 48.99 nmol/g, the “Concentration in large intestine” value [1, 8] was 4.64 nmol/g and 2.89 nmol/g and 70.74 nmol/g and the “Concentration in liver extracts” value [1, 8] was “BDL”. The Concentration in plasma [1, 8] was 6.73 nmol/g and 0.00 nmol/g and 10.19 nmol/g, the “Concentration in brain extracts” value [1, 9] was “BDL” and the “Concentration in cecum extracts” value [1, 9] was 7.99 nmol/g and 0.00 nmol/g and 24.86 nmol/g. The “Concentration in large intestine” value [1, 9] was 2.89 nmol/g and 7.18 nmol/g and 278.22 nmol/g, the “Concentration in liver extracts” value [1, 9] was 67.36 nmol/g and 3.05 nmol/g and 414.1 nmol/g and the Concentration in plasma [1, 9] was 0.00 nmol/g (2×) and 5.68 nmol/g. For the same molecule, the “Concentration in brain extracts” value [1, 10] was “BDL and 1.41 nmol/g”, the “Concentration in cecum extracts” value [1, 10] was 0.00 nmol/g and 12.47 nmol/g and the “Concentration in large intestine” value [1, 10] was 30.39 nmol/g and 11.51 nmol/g and 34.93 nmol/g. For the same molecule, the “Concentration in liver extracts” value [1, 10] was 8.76 nmol/g and 0.00 nmol/g and 97.7 nmol/g, the Concentration in plasma [1, 10] was 0.00 nmol/g (2×) and 3.97 nmol/g and the “Concentration in brain extracts” value [1, 11] was “BDL”. The “Concentration in cecum extracts” value [1, 11] was 0.00 nmol/g, the “Concentration in large intestine” value [1, 11] was 171.66 nmol/g and 231.01 nmol/g and 24.29 nmol/g and the “Concentration in liver extracts” value [1, 11] was 80.7 nmol/g and 58.6 nmol/g and BDL. The Concentration in plasma [1, 11] was 0.00 nmol/g, the Tmax ([1]; po, read-out: Time of peak plasma concentration (converted)) was 30 min and the “Presence in the brain” value ([1]; after oral indole 350 mg/kg) was “found in the brain”. The “Highest indole concentration (liver)” value ([1]; liver, 2 h after ingestion of indole 350 mg/kg) was 414.15 nmol/g, the “Time within which indole is metabolized” value ([1]; oral indole 350 mg/kg) was “up to 6 h” and the CBR1 expression (CBR1; liver and brain, any time point after indole administration) was “unaffected”. The CBR1 expression level (CBR1; liver, after indole administration) was “not altered”, the CBR3 expression (CBR3; brain, 2 h after indole administration) was “slight increase” and the CBR3 expression increase (CBR3; 4 h after indole administration) was 12 times. For the same molecule, the CBR3 expression increase (CBR3; 6 h after indole administration) was 8 times, the CYP1A2 expression (CYP1A2) was “significant increase” and the CYP2E1 expression (CYP2E1) was “mainly unchanged”.

In the case of `O=C1Cc2ccccc2N1` [Indolin-2-one, 1,3-dihydro-2H-indol-2-one], the Tmax ([1]; po) is listed as 30 min, the “Heavier (13C) isotope of metabolite in brain, liver, cecum, small intestine and colon” value [2] is listed as “detected” and the “Blood–brain barrier crossing” value [4] is listed as “cross the blood–brain barrier”. For the same molecule, the “Effect of low doses in the blood” value ([5]; 10 mg/kg) was “reduced blood pressure and mild sedation” and the “Effect of high doses” value ([5]; 100 mg/kg) was “coma and death”.

For `O=C1Nc2ccccc2C1=O` [Isatin, 3-hydroxy-2H-indol-2-one], the Tmax [1] is listed as 360 min, the Tmax ([1]; po) is listed as 30 min and the “Isatin in the brain” value ([4]; after systemic administration) is listed as “up to 5 nmol/g”. The “Blood–brain barrier crossing” value [4] was “cross the blood–brain barrier”.
